The conditions of this data set: Liquid, Closed cell (Static) method.

The structures appear in SMILES notation. Numbers after ± are expanded uncertainties.

The vapor or sublimation pressure is the equilibrium pressure above the liquid or solid.

Turning to `CCCCC` [pentane], the “vapor or sublimation pressure” value (288.25 K) stood at 48 ± 4 kPa and the “vapor or sublimation pressure” value (296.24 K) came to 66 ± 4 kPa.

In the case of `CCCCCC` [hexane], the “vapor or sublimation pressure” value reads like this: (288.24 K) 17 ± 4 kPa; (296.23 K) 21 ± 4 kPa.

The record behind these values is the NIST ThermoML archive (doi:10.1021/acs.jced.7b00836).
